Results as given in ChEMBL document CHEMBL1201862, “PubChem BioAssay data set” (2004).
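The compound was tested at five concentrations on cells cultured in 96-well plates, with a 48-hour exposure period. At the GI50, growth is halved.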 Activity calls are given as the source filed them. Rule as the data show it: active = GI50 up to about 1.1 µM and inactive = higher.

Tests used:
Assay in all cases: NCI-60 cell line screen, 48 h
[1] = test system: NCI-H460
[2] = test system: OVCAR-3
[3] = test system: RXF 393
[4] = test system: HCT-116
[5] = test system: SK-MEL-2
[6] = test system: KM12
[7] = test system: CAKI-1
[8] = test system: MCF7
[9] = test system: UO-31
[10] = test system: SK-OV-3
[11] = test system: NCI/ADR-RES
[12] = test system: NCI-H23
[13] = test system: EKVX
[14] = test system: OVCAR-8
[15] = test system: UACC-62
[16] = test system: A498
[17] = test system: HCT-15
[18] = test system: IGROV-1
[19] = test system: OVCAR-4
[20] = test system: MDA-MB-231
[21] = test system: TK-10
[22] = test system: HOP-62
[23] = test system: PC-3
[24] = test system: SK-MEL-5
[25] = test system: HCC 2998
[26] = test system: SK-MEL-28
[27] = test system: T47D
[28] = test system: K562
[29] = test system: SNB-19
[30] = test system: OVCAR-5
[31] = test system: BT-549
[32] = test system: U-251
[33] = test system: NCI-H522
[34] = test system: MDA-MB-435
[35] = test system: NCI-H226
[36] = test system: SF-295
[37] = test system: UACC-257
[38] = test system: LOX IMVI
[39] = test system: SN12C
[40] = test system: HOP-92
[41] = test system: SF-268
[42] = test system: RPMI-8226
[43] = test system: DU-145
[44] = test system: M14
[45] = test system: Malme-3M
[46] = test system: 786-0
[47] = test system: SF-539
[48] = test system: Hs-578T
[49] = test system: SNB-75
[50] = test system: MOLT-4
[51] = test system: CCRF-CEM
[52] = test system: ACHN
[53] = test system: HL-60
[54] = test system: A549
[55] = test system: SW-620
[56] = test system: HT-29
[57] = test system: COLO 205
[58] = test system: SR

COc1cc2c(OC)c3cc(C)oc(=O)c3c(O)c2c(O)c1-c1c(OC)cc2c(OC)c3cc(C)oc(=O)c3c(O)c2c1O
GI50 [1]: 21.6 µM (inactive) | GI50 [2]: 16.6 µM (inactive) | GI50 [3]: 20.1 µM (inactive) | GI50 [4]: 14.9 µM (inactive) | GI50 [5]: 17.5 µM (inactive) | GI50 [6]: 19.1 µM (inactive) | GI50 [7]: 15.2 µM (inactive) | GI50 [8]: 25.6 µM (inactive) | GI50 [9]: 18.5 µM (inactive) | GI50 [10]: 45.2 µM (inactive) | GI50 [11]: 17.1 µM (inactive) | GI50 [12]: 16.6 µM (inactive) | GI50 [13]: 21.9 µM (inactive) | GI50 [14]: 13 µM (inactive) | GI50 [15]: 20.9 µM (inactive) | GI50 [16]: 24.2 µM (inactive) | GI50 [17]: 18.5 µM | GI50 [18]: 14 µM (inactive) | GI50 [19]: 39.1 µM (inactive) | GI50 [20]: 18.4 µM (inactive) | GI50 [21]: 24.4 µM (inactive) | GI50 [22]: 15.2 µM (inactive) | GI50 [23]: 14 µM (inactive) | GI50 [24]: 16.7 µM (inactive) | GI50 [25]: 18.9 µM (inactive) | GI50 [26]: 21.2 µM (inactive) | GI50 [27]: 36.4 µM (inactive) | GI50 [28]: 16.4 µM (inactive) | GI50 [29]: 25.2 µM (inactive) | GI50 [30]: 19.7 µM (inactive) | GI50 [31]: 24.5 µM (inactive) | GI50 [32]: 15.8 µM (inactive) | GI50 [33]: 18.7 µM (inactive) | GI50 [34]: 18.2 µM (inactive) | GI50 [35]: 20.3 µM (inactive) | GI50 [36]: 18.6 µM (inactive) | GI50 [37]: 20.2 µM (inactive) | GI50 [38]: 19.6 µM (inactive) | GI50 [39]: 20.7 µM (inactive) | GI50 [40]: 16.1 µM (inactive) | GI50 [41]: 21.5 µM (inactive) | GI50 [42]: 17.3 µM (inactive) | GI50 [43]: 33.9 µM (inactive) | GI50 [44]: 18.1 µM (inactive) | GI50 [45]: 17.7 µM (inactive) | GI50 [46]: 22.2 µM (inactive) | GI50 [47]: 17.6 µM (inactive) | GI50 [48]: 34.2 µM (inactive) | GI50 [49]: 45.1 µM (inactive) | GI50 [50]: 15.7 µM (inactive) | GI50 [51]: 18.6 µM (inactive) | GI50 [52]: 16.5 µM (inactive) | GI50 [53]: 15.2 µM (inactive) | GI50 [54]: 19.4 µM (inactive) | GI50 [55]: 30 µM (inactive) | GI50 [56]: 22 µM (inactive)

O=C(C(Cl)Cl)N(O)c1ccccc1OCc1ccccc1
GI50 [1]: > 100 µM (inactive) | GI50 [2]: 27.7 µM (inactive) | GI50 [3]: 86.3 µM (inactive) | GI50 [4]: 63.8 µM (inactive) | GI50 [5]: 80 µM (inactive) | GI50 [6]: 28.2 µM (inactive) | GI50 [7]: 85.9 µM (inactive) | GI50 [8]: 56.5 µM (inactive) | GI50 [9]: 36.9 µM (inactive) | GI50 [10]: > 100 µM (inactive) | GI50 [11]: 22.8 µM (inactive) | GI50 [12]: > 100 µM (inactive) | GI50 [13]: 22 µM (inactive) | GI50 [14]: 8.95 µM (inactive) | GI50 [15]: 24.3 µM (inactive) | GI50 [57]: 17 µM (inactive) | GI50 [17]: 44.2 µM | GI50 [18]: 68.2 µM (inactive) | GI50 [19]: 26.6 µM (inactive) | GI50 [20]: 44.8 µM (inactive) | GI50 [21]: 56 µM (inactive) | GI50 [22]: > 100 µM (inactive) | GI50 [23]: 27.8 µM (inactive) | GI50 [25]: 1.9 µM (inactive) | GI50 [26]: 37.4 µM (inactive) | GI50 [27]: 19.1 µM (inactive) | GI50 [28]: 37.6 µM (inactive) | GI50 [29]: 57.7 µM (inactive) | GI50 [30]: > 100 µM (inactive) | GI50 [31]: 0.0395 µM (active) | GI50 [32]: 38.5 µM (inactive) | GI50 [33]: 25.6 µM (inactive) | GI50 [34]: 43.2 µM (inactive) | GI50 [35]: 78.3 µM (inactive) | GI50 [36]: 57.7 µM (inactive) | GI50 [37]: 13.7 µM (inactive) | GI50 [38]: 43.9 µM (inactive) | GI50 [39]: 49.2 µM (inactive) | GI50 [41]: 73.3 µM (inactive) | GI50 [42]: 34.2 µM (inactive) | GI50 [43]: 17 µM (inactive) | GI50 [44]: > 100 µM (inactive) | GI50 [45]: 81.8 µM (inactive) | GI50 [46]: 83.2 µM (inactive) | GI50 [47]: 31.3 µM (inactive) | GI50 [48]: 19.5 µM (inactive) | GI50 [49]: 29.4 µM (inactive) | GI50 [50]: 41.6 µM (inactive) | GI50 [51]: 1.79 µM (inactive) | GI50 [52]: 32.8 µM (inactive) | GI50 [53]: 27.6 µM (inactive) | GI50 [54]: 33.8 µM (inactive) | GI50 [58]: 22.9 µM (inactive) | GI50 [55]: 24.8 µM (inactive) | GI50 [56]: 17.2 µM (inactive)

CC#CCCCC1(C)CCCNC1=S (stereo not given)
GI50 [1]: > 10 µM (inactive) | GI50 [2]: > 10 µM (inactive) | GI50 [3]: > 10 µM (inactive) | GI50 [5]: > 10 µM (inactive) | GI50 [6]: > 10 µM (inactive) | GI50 [8]: > 10 µM (inactive) | GI50 [9]: > 10 µM (inactive) | GI50 [10]: > 10 µM (inactive) | GI50 [11]: > 10 µM (inactive) | GI50 [12]: > 10 µM (inactive) | GI50 [13]: > 10 µM (inactive) | GI50 [14]: > 10 µM (inactive) | GI50 [15]: > 10 µM (inactive) | GI50 [17]: > 10 µM | GI50 [18]: > 10 µM (inactive) | GI50 [19]: > 10 µM (inactive) | GI50 [20]: > 10 µM (inactive) | GI50 [21]: > 10 µM (inactive) | GI50 [23]: > 10 µM (inactive) | GI50 [24]: > 10 µM (inactive) | GI50 [27]: > 10 µM (inactive) | GI50 [28]: > 10 µM (inactive) | GI50 [29]: > 10 µM (inactive) | GI50 [30]: > 10 µM (inactive) | GI50 [31]: > 10 µM (inactive) | GI50 [32]: > 10 µM (inactive) | GI50 [33]: > 10 µM (inactive) | GI50 [34]: > 10 µM (inactive) | GI50 [36]: > 10 µM (inactive) | GI50 [37]: > 10 µM (inactive) | GI50 [38]: > 10 µM (inactive) | GI50 [39]: > 10 µM (inactive) | GI50 [40]: > 10 µM (inactive) | GI50 [41]: > 10 µM (inactive) | GI50 [43]: > 10 µM (inactive) | GI50 [44]: > 10 µM (inactive) | GI50 [45]: > 10 µM (inactive) | GI50 [46]: > 10 µM (inactive) | GI50 [47]: > 10 µM (inactive) | GI50 [48]: > 10 µM (inactive) | GI50 [49]: > 10 µM (inactive) | GI50 [50]: > 10 µM (inactive) | GI50 [51]: > 10 µM (inactive) | GI50 [52]: > 10 µM (inactive) | GI50 [53]: > 10 µM (inactive) | GI50 [54]: > 10 µM (inactive) | GI50 [58]: > 10 µM (inactive) | GI50 [55]: > 10 µM (inactive) | GI50 [56]: > 10 µM (inactive)
